Experimental data from US6066635A, “Avrainvillamide, a cytotoxic marine natural product, and derivatives thereof” (University of California, San Diego, priority 1999, dated 2000).
Converted amounts (≈) assume the structure as drawn.

Assays:
Assay type in all cases: cell-based
[1] = system: human colon HCT116 cells; assay: HCT-116 cytotoxicity assay; details: human colon HCT-116 cells; concentration required to inhibit cell proliferation by 50% vs untreated cells
Description: (§1) Thus, the invention provides a method of treating a cancer patient by administering to the patient a compound of the invention in an amount sufficient to reduce or inhibit proliferation of cancer cells in the patient.

[2] = system: melanoma MALME-3M cells; assay: in vitro cytotoxicity at the National Cancer Institute (NCI 60 cell panel), melanoma; details: Homo sapiens, inhibition of cell proliferation by 50%
Description: as §1

[3] = system: breast cancer cells βT-549; assay: in vitro cytotoxicity at the National Cancer Institute (NCI 60 cell panel), breast cancer βT-549; details: inhibition of cell proliferation by 50%
Description: as §1

[4] = system: breast cancer cells T-47D; assay: in vitro cytotoxicity at the National Cancer Institute (NCI 60 cell panel), breast cancer T-47D; details: Homo sapiens, T47D; breast cancer T-47D (printed T-470); inhibition of cell proliferation by 50%
Description: as §1

[5] = system: tumor cell lines in the NCI 60 cell panel; assay: cytotoxic effect in the NCI 60 cell panel
Description: as §1

Question: With `CC1(C)C=Cc2c(ccc3c2[N+]([O-])=C2C3=CC34NC(=O)C5(CCCN5C3=O)CC4C2(C)C)O1` (stereo not drawn) [Avrainvillamide] as the compound, how does the IC50 [1] read?
Answer: The IC50 was 2 µg/mL (≈ 4.49 µM).

Question: And the IC50 [2]?
Answer: The IC50 was 53 nM.

Question: And the IC50 [3]?
Answer: Its IC50 is 34 nM.

Question: And the IC50 [4]?
Answer: Its IC50 is 72 nM.

Question: And the “selective in vitro cytotoxicity towards melanoma and breast cancers” value ([5]; MALME-3M, βT-549 and T-470)?
Answer: The value was “significant selective in vitro cytotoxicity”.

Question: And the “cytotoxic effect against a variety of tumor cell lines” value ([5]; NCI 60 cell panel)?
Answer: Its value is “dose dependent cytotoxic effect”.
